“Also recorded” adds a separate entry of the source. Square brackets hold non-standard residues; d marks the D form. Peptide text beside a SMILES is read from it.
Experiments:
[1] = target: mMC4R-NanoLuc and mMC4R-HaloTag homodimer (Mus musculus, UniProt P56450); assay: NanoBRET ligand-dependent modulation of BRET signal; conditions: for change in BRET signal (in words): 10^−5, 10^−7 and 10^−9 M vs assay buffer; for reduction in BRET signal compared to basal signal: ligand at 10 μM
Description: On the first day, cells were plated into 6 well plates in the morning. In the afternoon of the same day, cells were transiently transfected with mMC4R-NanoLuc® fusion protein and the MC4R-HaloTag® fusion protein by adding FuGene6 Transfection (8 μL/well, Promega), DNA (2 μg/well) in OptiMem medium (Invitrogen) at a total volume of 100 μL/well. […] Cells were incubated with transfection reagent overnight at 5% CO2 at 37° C.
This provides the background signal and was subtracted from the final experimental signal. Plates were then developed 48 to 60 hours after transfection. Two hours before the plates were developed, 10 μL of a 10× aliquot of the ligand diluted in assay buffer was added to each well to yield the final in well concentration (10^−5, 10^−7, or 10^−9M) of each compound. For the assay buffer control, 10 μL of assay buffer was added instead of compound. […] The standard error of the mean (SEM) was derived from at least three independent experiments.

[2] = target: T1, hMC4R (Homo sapiens, UniProt P32245); assay: β-Arrestin Recruitment | EC50 (nM)
T1 construct: Flag; expressed in transfected cells
Target sequence in this assay (P32245 whole entry, looked up): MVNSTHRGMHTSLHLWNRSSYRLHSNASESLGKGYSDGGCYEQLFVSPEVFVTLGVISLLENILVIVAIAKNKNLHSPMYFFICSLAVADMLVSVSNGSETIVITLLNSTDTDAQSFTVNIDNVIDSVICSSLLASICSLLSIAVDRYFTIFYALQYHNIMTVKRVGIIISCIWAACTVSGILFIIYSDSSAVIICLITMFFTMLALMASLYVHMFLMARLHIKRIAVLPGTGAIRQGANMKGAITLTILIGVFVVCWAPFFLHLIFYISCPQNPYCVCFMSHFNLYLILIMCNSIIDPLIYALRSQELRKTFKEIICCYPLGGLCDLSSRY

[3] = target: T1, hMC4R; assay: cAMP Signaling | EC50 (nM)
Description: Table printed on a drawing sheet, Figure 20
The cAMP signaling potency was determined by AlphaScreen™ assays. […] The reported errors are the standard error of the mean (SEM) determined from at least three independent experiments. Changes less than 3-fold were considered to be within the inherent experimental assay error.
Target sequence in this assay (P32245 whole entry, looked up): as above

[4] = tested on: male MC4RKO mice; assay: ICV administration, conventional cages, male MC4RKO mice; type: in vivo; conditions: ICV 2.5 to 5 nmols; conventional cages
Description: (§1) All experiments were performed in accordance with the Institutional Animal Care and Use Committee (IACUC) at the University of Minnesota. Female and male littermates with mixed background from C57BL/6J and 129/Sv inbred strains were 8 weeks old at the time of surgeries. Mice were individually housed after surgeries and for the remainder of the experiment. Mice were maintained on a 12 hr light/dark cycle (Lights off was at 11:59 AM) in a temperature controlled room (23-25° C.). In the nocturnal feeding paradigm, mice had free access to normal chow (Harlan Teklad 2018 Diet: 18.6% crude protein, 6.2% crude fat, 3.5% crude fiber, with energy density of 3.1 kcal/g). […] Mice had free access to tap water throughout all the experiments. The cannula placement validation studies and conventional cage studies were performed in standard mouse polycarbonate conventional cages provided by University of Minnesota's Research Animal Resources (RAR). Weekly cage changes were conducted by lab research staff.
(§2) Mice were anesthetize with a mixture of ketamine (100 mg/kg) and xylazine (5 mg/kg) and were positioned in a stereotaxic apparatus (David Kopf Instruments). A 26-gauge cannula (Cat# 81C315GS4SPC; PlasticsOne, Roanoke, Va.) was inserted in the lateral cerebral ventricle at the coordinates 1.0 mm lateral and 0.46 mm posterior to bregma and 2.3 mm ventral to the skull (Franklin, K. B. J. & Paxinos, G. The Mouse Brain in Stereotaxic Coordinates. (Academic Press, 1997)).
(§3) As stated above, conventional cage experiments were performed in standard mouse polycarbonate conventional cages. […] All experiments followed a cross-over paradigm in which the mouse received saline and compound on different days with a washout period in between each treatment. Statistical analysis was performed using SPSS V23 software (IBM) using a multivariate general linear model followed by a Bonferroni's post hoc test. Results are presented as Mean±SEM. Statistically significant was considered p<0.05.
In male MC4RKO mice, CJL-5-58 was administered at 5 nmols in both a nocturnal paradigm and a fasting-refeeding paradigm in standard conventional cages (FIG. 15). The dose was well handled in the nocturnal paradigm, but minimal effect was observed.

[5] = tested on: wild type mice; assay: ICV administration, conventional cages, wild type mice; type: in vivo; conditions: preliminary conventional cage experiments; fasting paradigm
Description: as §1, §2
(§4) Each mouse was administered hPYY and saline on different days following a crossover design in the nocturnal feeding paradigm. In the nocturnal paradigm, compound is administered 2 hours prior to lights out with free access to food and water throughout the entire experiment. There was at least a 4 day washout period between administration to ensure that normal feeding patterns and body weight returned. Food intake and body weight were manually measured 2, 4, and 6 hours after hPYY or saline administration. A mouse with a validated cannula placement for the TSE cage experiments consumed at least 1.0 g more after hPYY administration compared to saline administration 4 hours post-administration.
as §3

[6] = tested on: male MC3RKO mice; assay: ICV administration, TSE metabolic cages, male MC3RKO mice; type: in vivo; conditions: nocturnal paradigm; 2.5 to 5 nmols
Description: as §1, §2, §3
In order to more clearly understand the effects of the biased agonism at the MC4R, the effects of administration of CJL-5-58 was explored in MC3R knockout (KO) mice and MC4RKO mice. […] Adverse reactions included two mice dying after the 5 nmol dose. […] The large error in activity may serve as an indication of toxicity. It is currently difficult to decipher whether the adverse reactions observed are due to paradigm effects, genotype difference, or compound toxicity.

[7] = target: T1, hMC4R; assay: AlphaScreen cAMP functional bioassay, hMC4R; type: cell-based; conditions: HEK293 cells stably expressing hMC4R
Description: Upon agonist stimulation, melanocortin receptors are known to signal through a Gαs-protein mediated signaling pathway that results in intracellular cAMP accumulation.
Stable populations were selected for using G418 selection (0.7-1.0 mg/mL) and used in bioassays unless indicated otherwise. In vitro experimental ligands were dissolved to a 10^−2 M stock in DMSO and stored at −20° C. Subsequent dilutions were performed in each assay's specific buffer to achieve the final concentration in the well. The ligands were assayed as TFA salts.
AlphaScreen cAMP Functional Bioassay
The AlphaScreen® assay was performed as described by manufacturer.
Cells were removed from plates using Gibco® Versene solution and pelleted by centrifugation (Sorvall Super T21 high speed centrifuge, swinging bucket rotor) at 800 rpm for five minutes. […] A 10 μL aliquot of cell suspension was counted manually using a hemocytometer after addition of Trypan blue dye (BioRad). Cells were again pelleted by centrifugation, and DPBS was gently aspirated. The pelleted cells were then resuspended in a solution of freshly made stimulation buffer (Hank's Balanced Salt Solution [HBSS 10× [−] sodium bicarbonate] and [−] phenol red, Gibco®], 0.5 mM isobutylmethylxanthine [IBMX], 5 mM HEPES buffer solution [1M, Gibco®], 0.1% bovine serum albumin [BSA] in Milli-Q water, pH=7.4) and anti-cAMP acceptor beads (1.0 unit per well, AlphaScreen®). […] The cells were then stimulated with ligand diluted in stimulation buffer to achieve their final concentrations in the well ranging from 10^−13 to 10^−4 M. The stimulated plates were incubated in a dark laboratory drawer at room temperature for two hours.
Meanwhile, a biotinylated cAMP/streptavidin donor bead working solution was made by adding biotinylated cAMP (1 Unit/well, AlphaScreen®) and streptavidin donor beads (1 Unit/well, AlphaScreen®) to a lysis buffer (10% Tween-20, 5 mM HEPES buffer solution [1M, Gibco®], 0.1% bovine serum albumin [BSA] in Milli-Q water, pH=7.4). After the two hour stimulation, the biotinylated cAMP/Streptavidin donor bead working solution was added to each well under green light and mixed well by pipetting up and down. The cells were incubated for another two hours at room temperature in a dark drawer at room temperature. The plate was then read on an EnSpire™ Alpha plate reader using a pre-normalized assay protocol set by the manufacturer. Assays were performed with duplicate data points on each plate and repeated in at least three independent experiments.
Dose response curves were analyzed using the PRISM program (v4.0; GraphPad Inc.).
Target sequence in this assay (P32245 whole entry): as the sequence (P32245 whole entry, looked up) above

[8] = tested on: male wild type mice; type: in vivo; conditions: nocturnal paradigm; 5.0 or 2.5 nmols CJL-1-124
Description: as §1, §2, §4, §3

[9] = target: T1, hMC4R; assay: PRESTO-Tango β-arrestin recruitment assay; type: cell-based; conditions: at 10 μM
Description: The PRESTO-Tango technology is an open-source resource that has been utilized to identify ligands for orphan receptors based on β-arrestin recruitment.
The plasmids and assay technology was kindly provided by the Bryan Roth laboratory (University of North Carolina at Chapel Hill) and are now available through ADDGENE (Kit # 1000000068).
The first day of the assay, HTLA cells were plated at approximately 1×10^6 cells per 10 cm plate and grown to 20-40% confluency. […] The third day, cells were removed from 10 cm plates using Gibco® Versene solution and pelleted by centrifugation (Sorvall Super T21 high speed centrifuge, swinging bucket rotor) at 800 rpm for five minutes at room temperature. Cells were manually counted on a hemocytometer and resuspended in 1% dialyzed FBS and 1% penicillin/streptomycin in DMEM to a final concentration of 400,000 cells/mL. […] Stimulated cells were incubated for 18 hours in 5% CO2 at 37° C. On the fifth day, the assay buffer and cell medium was removed by aspiration. […] After incubation, luminescence was then read on an EnSpire™ Alpha plate reader using a pre-normalized assay protocol for luminescence set by the manufacturer. Dose response curves were analyzed using the PRISM program (v4.0; GraphPad Inc.).
Target sequence in this assay (P32245 whole entry): as the sequence (P32245 whole entry, looked up) above

Chain of mMC4R-NanoLuc and mMC4R-HaloTag homodimer (P56450 whole entry): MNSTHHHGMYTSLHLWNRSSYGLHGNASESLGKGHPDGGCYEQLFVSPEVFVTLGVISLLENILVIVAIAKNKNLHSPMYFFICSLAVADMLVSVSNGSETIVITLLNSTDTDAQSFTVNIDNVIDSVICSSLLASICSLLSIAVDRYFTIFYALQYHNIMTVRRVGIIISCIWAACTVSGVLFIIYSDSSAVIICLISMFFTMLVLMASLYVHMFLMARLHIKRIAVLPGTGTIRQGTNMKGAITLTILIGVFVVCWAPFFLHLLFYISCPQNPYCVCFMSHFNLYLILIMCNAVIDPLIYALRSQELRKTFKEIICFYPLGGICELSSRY
Chain of mMC4R-NanoLuc and mMC4R-HaloTag homodimer (P56450 whole entry): as above

| Compound | change in BRET signal (in words) [1] | EC50 [2] | EC50 [3] | reduction in BRET signal compared to basal signal [1] | further results |
| --- | --- | --- | --- | --- | --- |
| CC(=O)N[C@@H](Cc1c[nH]cn1)C(=O)N[C@H](Cc1ccccc1)C(=O)N[C@@H](CCCNC(=N)N)C(=O)N[C@@H](Cc1c[nH]c2ccccc12)C(=O)N1CCC[C@H]1C(=O)NCC(=O)N1CCC[C@H]1C(=O)NCC(=O)N1CCC[C@H]1C(=O)NCC(=O)N1CCC[C@H]1C(=O)NCC(=O)N1CCC[C@H]1C(=O)NCC(=O)N1CCC[C@H]1C(=O)NCC(N)=O [CJL5-35-1, Ac-His-DPhe-Arg-Trp-(Pro-Gly)6-NH2] (Ac-H[dF]RWPGPGPGPGPGPG-NH2) |  | 1600 ± 600 nM | 5.5 ± 0.7 nM |  |  |
| CC(=O)N[C@@H](Cc1cnc[nH]1)C(=O)N[C@H](Cc1ccc2ccccc2c1)C(=O)N[C@@H](CCCNC(=N)N)C(=O)N[C@@H](Cc1c[nH]c2ccccc12)C(=O)NCCCOCCOCCOCCCNC(=O)COCC(=O)N[C@@H](Cc1cnc[nH]1)C(=O)N[C@H](Cc1ccccc1)C(=O)N[C@@H](CCCNC(=N)N)C(=O)N[C@@H](Cc1c[nH]c2ccccc12)C(N)=O [CJL-1-124, Ac-His-DNal(2′)-Arg-Trp-(PEDG20)-His-DPhe-Arg-Trp-NH2] |  |  |  | ~8% | toxicity [4]: some signs of toxicity were observed; also recorded: Some toxicity was observed; adverse effects [5]: strong adverse effects; adverse reactions / toxicity [6]: some signs of toxicity were observed; also recorded: Some toxicity was observed; cAMP agonist potency (in words) [7]: single digit nanomolar agonists; adverse reactions / toxicity [8]: some signs of adverse reactions observed at higher 5 nmol dose; also recorded: Some toxicity was observed |
| Ac-His-DNal(2′)-Arg-Trp-(PEDG20)-(PEDG20)-His-DPhe-Arg-Trp-NH2 [CJL-5-74, MUmBL; linker assigned from order of b161-b164 and b248] |  |  |  |  | cAMP agonist potency (in words) [7]: single digit nanomolar agonists |
| CC(=O)N[C@@H](Cc1c[nH]cn1)C(=O)N[C@H](Cc1ccccc1)C(=O)N[C@@H](CCCNC(=N)N)C(=O)N[C@@H](Cc1c[nH]c2ccccc12)C(=O)NCCCOCCOCCOCCCNC(=O)COCC(=O)N[C@@H](Cc1c[nH]cn1)C(=O)N[C@H](Cc1ccccc1)C(=O)N[C@@H](CCCNC(=N)N)C(=O)N[C@@H](Cc1c[nH]c2ccccc12)C(N)=O [CJL-1-87] |  |  |  | ~15% |  |
| CC(=O)N[C@@H](Cc1c[nH]cn1)C(=O)N[C@H](Cc1ccc2ccccc2c1)C(=O)N[C@@H](CCCNC(=N)N)C(=O)N[C@@H](Cc1c[nH]c2ccccc12)C(N)=O [CJL-1-80, Ac-His-DNal(2′)-Arg-Trp-NH2] | no significant changes in BRET signal |  |  |  | β-arrestin response compared to maximal efficacy of NDP-MSH [9]: 30% |
| Ac-His-DPhe-Arg-Trp-NH2 [CJL-1-14] | dose dependent decrease in BRET signal |  |  | 15% |  |

Second part, led by results:

| change in BRET signal (in words) [1] | EC50 [2] | EC50 [3] | Compound | reduction in BRET signal compared to basal signal [1] | further results |
| --- | --- | --- | --- | --- | --- |
| dose dependent decrease in BRET signal |  |  | α-MSH | 15% |  |
|  | 1500 ± 500 nM | 1.1 ± 0.07 nM | N=C(N)NCCC[C@H](NC(=O)[C@@H](Cc1ccccc1)NC(=O)[C@H](Cc1c[nH]cn1)NC(=O)CNC(=O)[C@@H]1CCCN1C(=O)CNC(=O)[C@@H]1CCCN1C(=O)CNC(=O)[C@@H]1CCCN1C(=O)CNC(=O)[C@@H]1CCCN1C(=O)CNC(=O)[C@@H]1CCCN1C(=O)CNC(=O)[C@@H]1CCCN1)C(=O)N[C@@H](Cc1c[nH]c2ccccc12)C(N)=O [CJL-1-41, (Pro-Gly)6-His-DPhe-Arg-Trp-NH2] (H-PGPGPGPGPGPGH[dF]RW-NH2; N-terminus assumed) |  |  |
|  | 280 ± 40 nM | 1.2 ± 0.3 nM | CC(=O)N[C@@H](Cc1c[nH]cn1)C(=O)N[C@H](Cc1ccccc1)C(=O)N[C@@H](CCCNC(=N)N)C(=O)N[C@@H](Cc1c[nH]c2ccccc12)C(=O)NCCCOCCOCCOCCCNC(=O)COCC(=O)NCCCOCCOCCOCCCNC(=O)COCC(=O)N[C@@H](Cc1c[nH]cn1)C(=O)N[C@H](Cc1ccccc1)C(=O)N[C@@H](CCCNC(=N)N)C(=O)N[C@@H](Cc1c[nH]c2ccccc12)C(N)=O [CJL-5-72, Ac-His-DPhe-Arg-Trp-(PEDG20)-(PEDG20)-His-DPhe- Arg-Trp-NH2] |  |  |
|  | 1900 ± 600 nM | 0.95 ± 0.08 nM | CC(=O)N[C@@H](Cc1c[nH]cn1)C(=O)N[C@H](Cc1ccccc1)C(=O)N[C@@H](CCCNC(=N)N)C(=O)N[C@@H](Cc1c[nH]c2ccccc12)C(=O)N1CCC[C@H]1C(=O)NCC(=O)N1CCC[C@H]1C(=O)NCC(=O)N1CCC[C@H]1C(=O)NCC(=O)N1CCC[C@H]1C(=O)NCC(=O)N1CCC[C@H]1C(=O)NCC(=O)N1CCC[C@H]1C(=O)NCC(=O)N[C@@H](Cc1c[nH]cn1)C(=O)N[C@H](Cc1ccccc1)C(=O)N[C@@H](CCCNC(=N)N)C(=O)N[C@@H](Cc1c[nH]c2ccccc12)C(N)=O [CJL-1-31, Ac-His-DPhe-Arg-Trp-(Pro-Gly)6-His-DPhe-Arg-Trp-NH2] (Ac-H[dF]RWPGPGPGPGPGPGH[dF]RW-NH2) |  |  |

Reference: US20180360972A1, “THERAPEUTIC COMPOUNDS” (REGENTS OF THE UNIVERSITY OF MINNESOTA, priority 2017, published 2018)
